Here are results for seven compounds from patent EP1921072A1, “1,2,3-Triazole derivatives as cannabinoid-receptor modulators” (Laboratorios del Dr. Esteve S.A., priority 2006, dated 2008).

For this assay, the target named is T1, CB1-Receptor (Homo sapiens, UniProt P21554).
T1 construct: purchased Receptor Biology, Inc
The assay is described as follows: In-vitro determination of affinity to CB1 receptor (radioligand [3H]-CP55940 binding). The conditions noted are these: compound at 10^-6 M, transfected human CB1 receptors. Here is the method: The in-vitro determination of the affinity of the inventive substituted pyrazoline compounds to CB1/CB2-receptors is carried out as described in the publication of Ruth A. Ross, Heather C. Brockie et al., "Agonist-inverse agonist characterization at CB1 and CB2 cannabinoid receptors of L-759633, L759656 and AM630", British Journal of Pharmacology, 126, 665-672, (1999), whereby the transfected human CB1 and CB2 receptors of Receptor Biology, Inc. are used. The radioligand used for both receptors is [^3H]-CP55940. The respective parts of the description are hereby incorporated by reference and forms part of the present disclosure.
The affinity of the inventive substituted pyrazoline compounds to CB1/CB2 receptors was determined as described above.

T1 sequence (P21554 whole entry): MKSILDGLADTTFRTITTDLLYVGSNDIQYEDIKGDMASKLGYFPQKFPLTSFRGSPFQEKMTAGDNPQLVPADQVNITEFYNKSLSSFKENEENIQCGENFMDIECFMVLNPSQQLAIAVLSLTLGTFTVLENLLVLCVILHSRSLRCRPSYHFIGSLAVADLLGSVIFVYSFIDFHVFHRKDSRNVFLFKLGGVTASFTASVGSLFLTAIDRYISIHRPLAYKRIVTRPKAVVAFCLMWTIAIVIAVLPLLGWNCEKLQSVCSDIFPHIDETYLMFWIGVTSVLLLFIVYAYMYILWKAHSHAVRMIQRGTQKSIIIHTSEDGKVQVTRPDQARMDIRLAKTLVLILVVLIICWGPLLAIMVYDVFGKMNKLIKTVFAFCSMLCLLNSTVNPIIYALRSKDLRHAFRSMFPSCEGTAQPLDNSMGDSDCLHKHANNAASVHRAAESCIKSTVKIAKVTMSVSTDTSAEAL

Turning to `CCCCCn1nnc(-c2ccccc2)c1-c1ccc(Cl)cc1` [Compound 10c, 5-(p-Chlorophenyl)-1-pentyl-4-phenyl-1H-[1,2,3]triazole], at 1 µM the inhibition was 21.1%.
For the compound `Clc1ccc(-c2nn(Cc3ccc(Br)cc3)nc2-c2ccccc2)cc1` [Compound 13a, 2-(p-Bromobenzyl)-4-(p-chlorophenyl)-5-phenyl-2H-[1,2,3]triazole], 1 µM produced 45.6% inhibition.
The compound `CCCCCn1nc(-c2ccc(C)cc2)c(-c2ccc(Cl)cc2Cl)n1` [Compound 11a, 4-(2,4-Dichlorophenyl)-2-pentyl-5-p-tolyl-2H-[1,2,3]triazole] showed an inhibition at 1 µM of 29.8%.
In turn, `Clc1ccc(-c2nnn(Cc3ccccc3)c2-c2ccccc2)cc1` [Compound 14b, 1-Benzyl-4-(p-chlorophenyl)-5-phenyl-1H-[1,2,3]triazole] came in with an inhibition at 1 µM of 24.6%.
Regarding `Fc1cc(Br)ccc1-c1cnn(Cc2ccccc2)n1` [Compound 15a, 2-Benzyl-4-(4-bromo-2-fluorophenyl)-2H-[1,2,3]triazole], the inhibition at 1 µM was 26.6%.
With `CCCCCn1nc(-c2ccccc2)c(-c2ccc(Cl)cc2)n1` [Compound 10a, 4-(p-Chlorophenyl)-2-pentyl-5-phenyl-2H-[1,2,3]triazole] the figure was 22.8%; with `Clc1ccc(-c2nn(C3C4CC5CC(C4)CC3C5)nc2-c2ccccc2)cc1` (stereo not shown) [Compound 19a, 2-Adamantyl-4-(p-chlorophenyl)-5-phenyl-2H-[1,2,3]triazole], 23.1%.

Usually inhibition stands for the change of the read-out against control, counted positive when it falls.
